Reference: patent US20260258330A1, “USE OF AT LEAST ONE […] A BEVERAGE, IN […] ALCOHOLIC BEVERAGE, AS A […] […]” (priority 2023, published 2026)
Where two headings read alike, the source gives them in different places.

Assays:
Saccharomyces cerevisiae [1] = assay type: cell-based
Experimental: For this example, 10 mL of apple juice, grape juice or multifruit juice was inoculated with a strain of Saccharomyces cerevisiae at 60,000 cells per mL, that is a deposit of 17 μL of inoculum per 10 ml tube for Ci at T0=[…].
These inoculated juices were incubated statically at 20° C., under subdued light, after having been pre-treated as follows: • 1. Untreated (Negative control) • 2. […] Ethanol 2.37% • 4. Ethanol 4.74% • 5. 100 ppm Chitosan • 6. 9 ppm Amphidinol 18 (AM18) • 7. 18 ppm Amphidinol 18 (AM18) • 8. 36 ppm Amphidinol 18 (AM18)
The amphidinol concentration is obtained using the product according to the invention obtained from Example 1. The amount of product according to the invention is adjusted to obtain the desired amphidinol concentrations.
The biomass of Saccharomyces populations was measured by optical density reading at 600 nm.

[2] = test system: Brettanomyces bruxellensis NL6300; test: Minimum inhibitory concentration of peak 0 purified fraction, OD550 (Example 6); assay type: cell-based; conditions: all concentrations (40 to 5 ppm) except the 5 ppm concentration of AM18
Experimental: The minimum inhibitory concentration of peak 0 (purified fraction) was determined for two strains of Brettanomyces bruxellensis (NL6293 and NL6300) according to the protocol described in Example 2 and FIG. 1B.
OD550 nm at T=0 days, T=3 days and T=6 days was measured after incubation of yeasts at 28° C. in the presence of YPD medium alone (negative control), methanol or in the presence of peak 0 at dilutions ranging from 1:32 to 1:256 corresponding to concentrations of 40 to 5 ppm of amphidinol 18. The product according to the invention at 0.25 g/L was also tested (positive control). Two replicas were produced.

[3] = Degradation kinetics of amphidinol 18 in wine, HPLC (Example 10); assay type: physicochemical; conditions: product doses containing 60 ppm to 480 ppm amphidinol 18; up to day 44
Experimental: Different doses of the product according to the invention, containing from 60 ppm to 480 ppm of amphidinol 18, were inoculated in the wine. The amount of amphidinol 18 was determined by HPLC assay over time, up to day 44 (T44). The percentage of amphidinol 18 with respect to the initial dose was assessed over time.

Acetobacter aceti = test: Minimum inhibitory concentration of peak 0 purified fraction, OD550 (Example 8); assay type: cell-based; conditions: 40, 20 and 10 pp: of AM18 (tested 40 to 5 ppm); MRS medium, 10^5 CFU/mL
Experimental: The minimum inhibitory concentration (MIC) of peak 0 described in FIG. 5D was determined for Acetobacter aceti according to the protocol described in Example 2 and FIG. 1B.
(§1) OD550 nm at 0, 3 and 6 days (T0, T3 and T6) was measured after incubation at 28° C. of yeasts at 10^5 CFU/mL in the presence of MRS medium alone (negative control), methanol (MEtOH) or in the presence of peak 0 at a dilution of 1:32 to 1:256 corresponding to concentrations of 40 to 5 ppm of amphidinol 18. The product according to the invention at 0.25 g/L was also tested under the same conditions. Two replicas (rep1 and rep2) were carried out.

Saccharomyces cerevisiae [4] = test: Minimum inhibitory concentration of peak 0 purified fraction, OD550 (Example 7); assay type: cell-based; conditions: 40 and 20 ppm of AM18 (tested 40 to 5 ppm); 2.5·10^4 CFU/mL
Experimental: The minimum inhibitory concentration (MIC) of peak 0 described in FIG. 5D was determined for Saccharomyces cerevisiae according to the protocol described in Example 2 and FIG. 1B.
as §1, with “2.5·10^4” for “10^5”, “YPD” for “MRS”, “produced.” for “carried out.”

[5] = Degradability of amphidinol 18 in light at room temperature, HPLC (Example 4); assay type: physicochemical; conditions: product at one gram per liter in 70% ethanol
Text: Regularly, the concentration of amphidinol 18 in the product according to the invention has been measured by high-performance liquid chromatography.

[6] = test system: three strains of Brettanomyces bruxellensis; test: Growth of three Brettanomyces bruxellensis strains with product or inactivated product, optical density at 550 nm (Example 4); assay type: cell-based; conditions: conclusion from degradation and growth tests of Example 4
Experimental: Two replicas were made for each condition.
Yeast growth is measured by reading the optical density at 550 nanometers.

Question: With `CCO` [Ethanol, reference compound] as the compound, how does the yeast population growth (Saccharomyces cerevisiae [1]) read?
Answer: no yeast population growth

Question: Which results are given for `C=C/C=C/CC/C=C/C=C/C=C/CC/C=C/[C@H](O)[C@H](O)[C@@H]1O[C@@H]([C@H](O)[C@H](O)C(=C)CC[C@@H](O)[C@H]2C[C@@H](O)[C@@H](O)[C@H]([C@@H](O)[C@H](O)/C=C(\C)CCC(O)CC(O)C(O)C(C)CC(O)C(O)CC(C)CCC(O)CC(=O)CC(O)CCCC(O)CCCCC(O)CO)O2)C[C@@H](O)[C@H]1O` (stereo partly drawn) [amphidinol 18]?
Answer: effectiveness against strain NL6300 [2]: effective; degradation of amphidinol 18 in wine [3]: degrades steadily; effectiveness against Acetobacter aceti (Acetobacter aceti): effective; effectiveness against Saccharomyces cerevisiae (Saccharomyces cerevisiae [4]): effective; amphidinol 18 concentration of the product ([5]; T=0 days): 24 mg/L; amphidinol 18 concentration of the product ([5]; T=120 days): ~0 mg/L; growth of Saccharomyces populations (Saccharomyces cerevisiae [1]; 3 types of fruit juice): completely preventing the growth; Average D0, optical density at 600 nm (Saccharomyces cerevisiae [1]; Apple juice, 9 ppm AM18): −0.1305; Average D1, optical density at 600 nm (Saccharomyces cerevisiae [1]; Apple juice, 9 ppm AM18): −0.1655; Average D2, optical density at 600 nm (Saccharomyces cerevisiae [1]; Apple juice, 9 ppm AM18): 0.1385; Average D3, optical density at 600 nm (Saccharomyces cerevisiae [1]; Apple juice, 9 ppm AM18): 0.6495; Average D0, optical density at 600 nm (Saccharomyces cerevisiae [1]; Apple juice, 18 ppm AM18): 0.0835; Average D1, optical density at 600 nm (Saccharomyces cerevisiae [1]; Apple juice, 18 ppm AM18): 0.0055; Average D2, optical density at 600 nm (Saccharomyces cerevisiae [1]; Apple juice, 18 ppm AM18): −0.0505; Average D3, optical density at 600 nm (Saccharomyces cerevisiae [1]; Apple juice, 18 ppm AM18): −0.091; Average D0, optical density at 600 nm (Saccharomyces cerevisiae [1]; Apple juice, 36 ppm AM18): −0.012; Average D1, optical density at 600 nm (Saccharomyces cerevisiae [1]; Apple juice, 36 ppm AM18): −0.007; Average D2, optical density at 600 nm (Saccharomyces cerevisiae [1]; Apple juice, 36 ppm AM18): −0.062; Average D3, optical density at 600 nm (Saccharomyces cerevisiae [1]; Apple juice, 36 ppm AM18): 0.3515; Average D0, optical density at 600 nm (Saccharomyces cerevisiae [1]; Grape juice, 9 ppm AM18): 0.0755; Average D1, optical density at 600 nm (Saccharomyces cerevisiae [1]; Grape juice, 9 ppm AM18): 0.0375; Average D2, optical density at 600 nm (Saccharomyces cerevisiae [1]; Grape juice, 9 ppm AM18): 0.0315; Average D3, optical density at 600 nm (Saccharomyces cerevisiae [1]; Grape juice, 9 ppm AM18): −0.084; Average D0, optical density at 600 nm (Saccharomyces cerevisiae [1]; Grape juice, 18 ppm AM18): 0.2065; Average D1, optical density at 600 nm (Saccharomyces cerevisiae [1]; Grape juice, 18 ppm AM18): 0.175; Average D2, optical density at 600 nm (Saccharomyces cerevisiae [1]; Grape juice, 18 ppm AM18): 0.154; Average D3, optical density at 600 nm (Saccharomyces cerevisiae [1]; Grape juice, 18 ppm AM18): 0.0515; Average D0, optical density at 600 nm (Saccharomyces cerevisiae [1]; Grape juice, 36 ppm AM18): −0.1485; Average D1, optical density at 600 nm (Saccharomyces cerevisiae [1]; Grape juice, 36 ppm AM18): −0.174; Average D2, optical density at 600 nm (Saccharomyces cerevisiae [1]; Grape juice, 36 ppm AM18): −0.2285; Average D3, optical density at 600 nm (Saccharomyces cerevisiae [1]; Grape juice, 36 ppm AM18): −0.2465; Average D0, optical density at 600 nm (Saccharomyces cerevisiae [1]; Multifruit juice, 9 ppm AM18): −0.006; Average D1, optical density at 600 nm (Saccharomyces cerevisiae [1]; Multifruit juice, 9 ppm AM18): −0.028; Average D2, optical density at 600 nm (Saccharomyces cerevisiae [1]; Multifruit juice, 9 ppm AM18): −0.0705; Average D3, optical density at 600 nm (Saccharomyces cerevisiae [1]; Multifruit juice, 9 ppm AM18): 0.0995; Average D0, optical density at 600 nm (Saccharomyces cerevisiae [1]; Multifruit juice, 18 ppm AM18): 0.002; Average D1, optical density at 600 nm (Saccharomyces cerevisiae [1]; Multifruit juice, 18 ppm AM18): −0.0365; Average D2, optical density at 600 nm (Saccharomyces cerevisiae [1]; Multifruit juice, 18 ppm AM18): −0.0155; Average D3, optical density at 600 nm (Saccharomyces cerevisiae [1]; Multifruit juice, 18 ppm AM18): 0.033; Average D0, optical density at 600 nm (Saccharomyces cerevisiae [1]; Multifruit juice, 36 ppm AM18): −0.009; Average D1, optical density at 600 nm (Saccharomyces cerevisiae [1]; Multifruit juice, 36 ppm AM18): 0.034; Average D2, optical density at 600 nm (Saccharomyces cerevisiae [1]; Multifruit juice, 36 ppm AM18): 0.008; Average D3, optical density at 600 nm (Saccharomyces cerevisiae [1]; Multifruit juice, 36 ppm AM18): 0.018; effectiveness for controlling and/or limiting the growth of Brettanomyces bruxellensis [6]: particularly effective
